Assay results from patent publication US10285983B2, “3-(1H-pyrrolo[2,3-B]pyridin-2-yl)-1H-pyrazolo[3,4-B] pyridines and therapeutic uses thereof” (Samumed, LLC, priority 2015, dated 2019).

Tests used:
Format in all cases: cell-based
SW480 colon cancer cells = assay: Cell viability assay (CellTiter-Blue); conditions: Homo sapiens, 96 h, four days; for inhibition at 10 µM: given for EC50 >10 μM, read-out: percent inhibition at 10 μM
Description: Representative compounds were screened using the following assay procedure to assess the effect on cell viability as described below.
Each compound was dissolved in DMSO as a 10 mM stock and used to prepare compound source plates. Serial dilution (1:3, 8-point dose-response curves from 10 μM to 0.0045 μM) and compound transfer was performed using the ECHO 550 (Labcyte, Sunnyvale, Calif.) into 96-well clear bottom, black-walled plates (Corning-Costar).
Approximately 2×10^3 SW480 colon cancer cells were seeded into each well and allowed to incubate in the presence or absence of compound for four days at 37° C./5% CO2. Eight replicates of DMSO-treated cells served as controls and cells treated with compound were performed in duplicate.
After incubation, 20 μL of CellTiter-Blue (Promega) was added to each well allowed to incubate for approximately 3 hours. This reagent was a buffered solution which contains resazurin, metabolically active cells were able to reduce rezarurin (blue) into resorufin (pink) which was highly fluorescent. This measured fluorescence was used as a readout for cell viability.
After incubation, the plates were read at Ex 560 nm Em 590 nm (Cytation 3, BioTek). Dose-response curves were generated and EC50 concentration values were calculated using non-linear regression curve fit in the GraphPad Prism (San Diego, Calif.) or Dotmatics' Studies Software (Bishops Stortford, UK). For EC50 of >10 μM, the percent inhibition at 10 μM is provided.

[1] = tested on: Wnt activity (Sp5-Luc reporter, SW480 colon carcinoma cells); assay: Wnt activity screening assay, Sp5-Luc reporter gene in SW480 cells; conditions: Homo sapiens; for inhibition at 10 µM: given for EC50 >10 μM, read-out: percent inhibition at 10 μM; for EC50: overnight incubation
Text: The screening assay for Wnt activity is described as follows. Reporter cell lines can be generated by stably transducing cancer cell lines (e.g., colon cancer) or primary cells (e.g., IEC-6 intestinal cells) with a lentiviral construct that includes a Wnt-responsive promoter driving expression of the firefly luciferase gene.
SW480 colon carcinoma cells were transduced with a lentiviral vector expressing luciferase with a human Sp5 promoter consisting of a sequence of eight TCF/LEF binding sites. SW480 cells stably expressing the Sp5-Luc reporter gene and a hygromycin resistance gene were selected by treatment with 150 μg/mL of hygromycin for 7 days. These stably transduced SW480 cells were expanded in cell culture and used for all further screening activities. Each compound was dissolved in DMSO as a 10 mM stock and used to prepare compound source plates. Serial dilution (1:3, 10-point dose-response curves starting from 10 μM) and compound transfer was performed using the ECHO 550 (Labcyte, Sunnyvale, Calif.) into 384-well white solid bottom assay plates (Greiner Bio-One) with appropriate DMSO backfill for a final DMSO concentration of 0.1%. For Sp5-Luc reporter gene assays, the cells were plated at 4,000 cells/well in 384-well plates with medium containing 1% fetal bovine serum and incubated overnight at 37° C. and 5% CO2. Following incubation, 20 μl of BrightGlo luminescence reagent (Promega) was added to each well of the 384-well assay plates. The plates were placed on an orbital shaker for 2 min and then luminescence was quantified using the Envision (Perkin Elmer) plate reader. Readings were normalized to DMSO only treated cells, and normalized activities were utilized for EC50 calculations using the dose-response log (inhibitor) vs. response—variable slope (four parameters) nonlinear regression feature available in GraphPad Prism 5.0 (or Dotmatics). For EC50 of >10 μM, the percent inhibition at 10 μM is provided.

[2] = tested on: IL-6 (THP-1 human monocyte cell line); assay: IL-6 inhibition in LPS-stimulated THP-1 cells (HTRF); conditions: LPS 500 ng/mL; for EC50: 22 hours, IL6 HTRF; for inhibition at 10 µM: given for EC50 >10 μM, read-out: percent inhibition at 10 μM
Description: Human monocyte cell line (THP-1 cells; Catalog # TIB-202, ATCC, Manassas, Va.) were cultured in Roswell Park Memorial Institute (RPMI) 1640 Medium (Catalog #21870-100, Buffalo, N.Y.) with 1% L-glutamine, 1% HEPES, 1% Sodium Pyruvate, 2% Sodium Bicarbonate supplemented with 100 units/mL penicillin, 50 μg/mL streptomycin, 2-mercaptoethanol (0.05 mM) [basal medium] and 10% fetal bovine serum (Catalog #16140089, Life Technologies, Carlsbad, Calif.) at 37° C. and 5% CO2.
THP-1 cells were cultured in basal media with 1% FBS for 24 hours before the start of the assay. Each compound was dissolved in DMSO as a 10 mM stock and used to prepare compound source plates. Serial dilution (1:3, 10-point dose-response curves starting from […]) and compound transfer was performed using the ECHO 550 (Labcyte, Sunnyvale, Calif.) into 384-well white low volume assay plates (Greiner Bio-One) with appropriate DMSO backfill for a final DMSO concentration of 0.1%. THP-1 cells were plated at 5000 cells/well in the 384-well plates and incubated at 37° C. for 2 h. 500 ng/mL of LPS was added after 2 hours and cells were incubated for another 22 hours at 37° C. Plates were spun in a centrifuge for 1 minute at 10,000 rpm and a mixture of anti-IL6 XL665, and anti-IL6 Cryptate diluted in reconstitution buffer (Cisbio Inc.) was added to each well. Following incubation for 3 hrs at room temperature, Homogeneous Time-Resolved Fluorescence (HTRF) was measured using the Envision (Perkin Elmer) at 665 nm and […]. The ratio of fluorescence at 665 nm to 620 nm was used as a readout for IL6 quantification. All samples were processed in duplicate. Readings were normalized to DMSO treated cells and normalized activities were utilized for EC50 calculations using the dose-response log (inhibitor) vs. response—variable slope (four parameters) nonlinear regression feature available in GraphPad Prism 5.0 (or Dotmatics). For EC50 of >10 μM, the percent inhibition at 10 μM is provided.

Compound | EC50 (SW480 colon cancer cells) [µM] | inhibition at 10 µM (SW480 colon cancer cells) [%] | inhibition at 10 µM [1] [%] | EC50 [1] [µM] | EC50 [2] [µM] | inhibition at 10 µM [2] [%]
CC(C)(C)CC(=O)Nc1cncc(-c2cnc3[nH]nc(-c4cc5c(-c6ccncc6)ccnc5[nH]4)c3c2)c1 [Compound 128, 3,3-Dimethyl-N-(5-(3-(4-(pyridin-4-yl)-1H-pyrrolo[2,3-b]pyridin-2-yl)-1H-pyrazolo[3,4-b]pyridin-5-yl)pyridin-3-yl)butanamide] | > 10 | 10.7 | 0 | > 10 | > 10 | 45.8
c1ncc(-c2cnc3[nH]nc(-c4cc5c(N6CCCCC6)ccnc5[nH]4)c3c2)cn1 [Compound 195, 3-(4-(Piperidin-1-yl)-1H-pyrrolo[2,3-b]pyridin-2-yl)-5-(pyrimidin-5-yl)-1H-pyrazolo[3,4-b]pyridine] | > 10 | 13.9 | 6.9 | > 10 | > 10 | 49.8
CN(C)Cc1cncc(-c2cnc3[nH]nc(-c4cc5c(-c6cccnc6)ccnc5[nH]4)c3c2)c1 [Compound 97, N,N-Dimethyl-1-(5-(3-(4-(pyridin-3-yl)-1H-pyrrolo[2,3-b]pyridin-2-yl)-1H-pyrazolo[3,4-b]pyridin-5-yl)pyridin-3-yl)methanamine] | > 10 | 19.6 | 0 | > 10 | > 10 | 38.5
c1ccc(-c2cnc3[nH]nc(-c4cc5c(-c6ccncc6)ccnc5[nH]4)c3c2)nc1 [Compound 140, 5-(Pyridin-2-yl)-3-(4-(pyridin-4-yl)-1H-pyrrolo[2,3-b]pyridin-2-yl)-1H-pyrazolo[3,4-b]pyridine] | > 10 | 20.2 | 12.3 | > 10 | > 10 | 24.5
O=C(Nc1cncc(-c2cnc3[nH]nc(-c4cc5c(-c6ccncc6)ccnc5[nH]4)c3c2)c1)C1CCCCC1 [Compound 135, N-(5-(3-(4-(Pyridin-4-yl)-1H-pyrrolo[2,3-b]pyridin-2-yl)-1H-pyrazolo[3,4-b]pyridin-5-yl)pyridin-3-yl)cyclohexanecarboxamide] | > 10 | 13.9 | 16.4 | > 10 | > 10 | 37.7
c1cncc(-c2cnc3[nH]nc(-c4cc5c(-c6cccnc6)ccnc5[nH]4)c3c2)c1 [Compound 88, 5-(Pyridin-3-yl)-3-(4-(pyridin-3-yl)-1H-pyrrolo[2,3-b]pyridin-2-yl)-1H-pyrazolo[3,4-b]pyridine] | > 10 | 10.8 | 17 | > 10 | > 10 | 22.6
CN(C)Cc1cncc(-c2cnc3[nH]nc(-c4cc5c(-c6cccc(F)c6)ccnc5[nH]4)c3c2)c1 [Compound 13, 1-(5-(3-(4-(3-Fluorophenyl)-1H-pyrrolo[2,3-b]pyridin-2-yl)-1H-pyrazolo [3,4-b]pyridin-5-yl)pyridin-3-yl)-N,N-dimethylmethanamine] | > 10 | 11.6 | 22.6 | > 10 | > 10 | 27.5
CCC(=O)Nc1cncc(-c2cnc3[nH]nc(-c4cc5c(-c6cccc(F)c6)ccnc5[nH]4)c3c2)c1 [Compound 1, N-(5-(3-(4-(3-Fluorophenyl)-1H-pyrrolo[2,3-b]pyridin-2-yl)-1H-pyrazolo [3,4-b]pyridin-5-yl)pyridin-3-yl)propionamide] | > 10 | 9.8 | 46.1 | > 10 | > 10 | 23.8
CC(C)C(=O)Nc1cncc(-c2cnc3[nH]nc(-c4cc5c(-c6ccccc6F)ccnc5[nH]4)c3c2)c1 [Compound 65, N-(5-(3-(4-(2-Fluorophenyl)-1H-pyrrolo[2,3-b]pyridin-2-yl)-1H-pyrazolo [3,4-b]pyridin-5-yl)pyridin-3-yl)isobutyramide] | > 10 | 32.1 | 30.8 | > 10 | > 10 | 25.6
O=C(Nc1cncc(-c2cnc3[nH]nc(-c4cc5cccnc5[nH]4)c3c2)c1)C1CCCCC1 [Compound 275, N-(5-(3-(1H-Pyrrolo[2,3-b]pyridin-2-yl)-1H-pyrazolo[3,4-b]pyridin-5-yl)pyridin-3-yl)cyclohexanecarboxamide] | 2.43 |  |  | 1.26 | 0.063 | 
O=C(CC1CCNCC1)Nc1cncc(-c2cnc3[nH]nc(-c4cc5c(-c6ccncc6)ccnc5[nH]4)c3c2)c1 [Compound 577] | > 10 | 8.7 | 12.5 | > 10 | > 10 | 0
CCC(=O)Nc1cncc(-c2cnc3[nH]nc(-c4cc5c(N6CCCCC6)ccnc5[nH]4)c3c2)c1 [Compound 169, N-(5-(3-(4-(Piperidin-1-yl)-1H-pyrrolo[2,3-b]pyridin-2-yl)-1H-pyrazolo[3,4-b]pyridin-5-yl)pyridin-3-yl)propionamide] | > 10 | 36.1 |  | 0.861 | 4.81 | 
O=C(Nc1cncc(-c2cnc3[nH]nc(-c4cc5c(-c6ccncc6)ccnc5[nH]4)c3c2)c1)c1ccccc1 [Compound 123, N-(5-(3-(4-(Pyridin-4-yl)-1H-pyrrolo[2,3-b]pyridin-2-yl)-1H-pyrazolo[3,4-b]pyridin-5-yl)pyridin-3-yl)benzamide] | > 10 | 12 | 5.2 | > 10 | > 10 | 15.1
Fc1ccc(-c2ccnc3[nH]c(-c4n[nH]c5ncc(-c6cncc(CN7CCCCC7)c6)cc45)cc23)cc1 [Compound 43, 3-(4-(4-Fluorophenyl)-1H-pyrrolo[2,3-b]pyridin-2-yl)-5-(5-(piperidin-1-ylmethyl)pyridin-3-yl)-1H-pyrazolo[3,4-b]pyridine] | > 10 | 6.9 | 2.8 | > 10 | > 10 | 36.7
